# Experimental data reported in ChEMBL document CHEMBL5104138, “Discovery of pyridyl urea sulfonamide inhibitors of NaV1.7” (Bioorg Med Chem Lett, 2022).
# Assays:
# Mus musculus [1] = experiment: Antinociceptive activity in UV burn-induced thermal hyperalgesia mouse model assessed as reduction in latency time at 30 mg/kg, po relative to control; format: functional; set-up: scale not given: the % may be the effect or the level left
# [2] = Clearance in rat at 0.5 mg/kg, iv; conditions: in vivo
# Cytochrome P450 3A4 [3] = biological target: T1, Cytochrome P450 3A4 (Homo sapiens, UniProt P08684); experiment: Time dependent inhibition of CYP3A4 in human liver microsomes using midazolam as substrate preincubated for 30 mins followed by substrate addition; format: ADME, Microsome
# T1 sequence (P08684 whole entry): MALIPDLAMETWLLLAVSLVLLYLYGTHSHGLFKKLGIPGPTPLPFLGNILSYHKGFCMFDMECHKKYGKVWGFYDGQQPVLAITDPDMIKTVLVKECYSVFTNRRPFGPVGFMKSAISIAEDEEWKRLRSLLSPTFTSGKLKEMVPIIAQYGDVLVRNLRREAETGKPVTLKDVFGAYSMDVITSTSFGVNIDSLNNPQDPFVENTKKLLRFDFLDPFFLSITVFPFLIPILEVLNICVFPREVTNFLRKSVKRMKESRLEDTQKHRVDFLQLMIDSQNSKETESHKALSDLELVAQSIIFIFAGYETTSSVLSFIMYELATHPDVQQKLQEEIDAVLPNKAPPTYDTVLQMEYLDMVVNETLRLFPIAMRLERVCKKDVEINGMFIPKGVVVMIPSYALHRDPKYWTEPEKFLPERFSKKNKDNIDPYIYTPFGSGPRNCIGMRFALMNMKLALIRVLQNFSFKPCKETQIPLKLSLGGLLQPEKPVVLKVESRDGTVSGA
# Cytochrome P450 3A4 [4] = biological target: T1, Cytochrome P450 3A4; experiment: Time dependent inhibition of CYP3A4 in human liver microsomes using midazolam as substrate incubated for 30 mins; format: ADME, Microsome
# [5] = biological target: T2, Sodium channel protein type 9 subunit alpha (Homo sapiens, UniProt Q15858); experiment: Inhibition of human Nav1.7 by PatchXpress assay
# [6] = Lipophilicity, logD of compound at pH 7.4; format: physicochemical; conditions: buffer
# [7] = Passive permeability of compound; format: ADME; conditions: not told; read-out: permeability
# [8] = biological target: T2, Sodium channel protein type 9 subunit alpha; experiment: Inhibition of human Nav1.7 at 1 uM by PatchXpress assay relative to control
# Target sequence in this assay (Q15858 whole entry, looked up): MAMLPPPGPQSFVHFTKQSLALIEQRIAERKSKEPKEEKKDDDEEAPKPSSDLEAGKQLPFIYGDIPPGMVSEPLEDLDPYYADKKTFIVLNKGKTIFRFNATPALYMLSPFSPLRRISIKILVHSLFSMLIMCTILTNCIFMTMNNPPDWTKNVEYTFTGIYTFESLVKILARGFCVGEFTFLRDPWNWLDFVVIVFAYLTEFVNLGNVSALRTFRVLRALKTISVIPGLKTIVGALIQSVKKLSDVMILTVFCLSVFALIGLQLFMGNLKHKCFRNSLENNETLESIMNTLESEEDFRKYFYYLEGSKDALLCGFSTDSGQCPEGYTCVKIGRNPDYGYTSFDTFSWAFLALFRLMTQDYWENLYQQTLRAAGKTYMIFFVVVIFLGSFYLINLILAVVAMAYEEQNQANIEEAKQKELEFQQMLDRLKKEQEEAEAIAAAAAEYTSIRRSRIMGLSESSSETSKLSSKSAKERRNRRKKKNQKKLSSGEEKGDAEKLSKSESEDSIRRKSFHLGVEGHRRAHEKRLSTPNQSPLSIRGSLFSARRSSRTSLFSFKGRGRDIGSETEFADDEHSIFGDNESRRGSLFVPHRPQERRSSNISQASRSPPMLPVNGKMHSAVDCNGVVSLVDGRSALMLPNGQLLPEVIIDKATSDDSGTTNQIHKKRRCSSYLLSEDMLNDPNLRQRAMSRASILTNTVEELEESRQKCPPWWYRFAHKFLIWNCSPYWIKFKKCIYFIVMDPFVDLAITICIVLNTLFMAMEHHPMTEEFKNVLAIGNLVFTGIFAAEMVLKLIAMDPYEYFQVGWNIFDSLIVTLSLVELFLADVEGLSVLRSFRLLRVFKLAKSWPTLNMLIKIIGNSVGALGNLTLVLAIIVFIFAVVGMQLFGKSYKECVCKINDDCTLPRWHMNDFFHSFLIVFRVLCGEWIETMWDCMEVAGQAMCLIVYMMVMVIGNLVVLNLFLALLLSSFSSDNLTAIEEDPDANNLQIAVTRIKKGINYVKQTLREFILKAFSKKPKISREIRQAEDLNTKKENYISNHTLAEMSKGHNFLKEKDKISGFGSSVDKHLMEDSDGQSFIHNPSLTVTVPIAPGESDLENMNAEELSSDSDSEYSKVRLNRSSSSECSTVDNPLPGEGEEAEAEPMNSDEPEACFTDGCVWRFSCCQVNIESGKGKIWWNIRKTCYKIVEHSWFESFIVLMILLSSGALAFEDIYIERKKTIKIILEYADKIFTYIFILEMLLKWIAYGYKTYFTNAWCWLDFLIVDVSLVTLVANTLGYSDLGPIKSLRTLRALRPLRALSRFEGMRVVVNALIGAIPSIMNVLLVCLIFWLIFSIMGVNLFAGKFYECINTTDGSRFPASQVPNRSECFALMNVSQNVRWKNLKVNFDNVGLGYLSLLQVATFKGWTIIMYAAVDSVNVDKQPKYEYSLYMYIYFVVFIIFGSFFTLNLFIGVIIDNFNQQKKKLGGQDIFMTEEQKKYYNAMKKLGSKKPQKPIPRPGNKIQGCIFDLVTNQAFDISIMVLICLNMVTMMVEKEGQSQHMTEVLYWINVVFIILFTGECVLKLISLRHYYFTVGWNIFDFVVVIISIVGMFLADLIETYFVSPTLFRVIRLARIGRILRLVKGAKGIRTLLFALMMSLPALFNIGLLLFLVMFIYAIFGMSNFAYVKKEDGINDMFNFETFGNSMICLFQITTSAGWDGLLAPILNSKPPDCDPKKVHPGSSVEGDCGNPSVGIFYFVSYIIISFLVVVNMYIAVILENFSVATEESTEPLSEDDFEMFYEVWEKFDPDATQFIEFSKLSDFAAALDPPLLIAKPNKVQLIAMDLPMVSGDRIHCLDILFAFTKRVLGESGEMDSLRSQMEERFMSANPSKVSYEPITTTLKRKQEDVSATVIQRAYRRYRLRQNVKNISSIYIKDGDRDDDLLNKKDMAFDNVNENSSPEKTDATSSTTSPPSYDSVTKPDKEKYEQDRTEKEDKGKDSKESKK
# [9] = rat, in vivo, iv, 0.5 mg/kg
# Description: Unbound clearance in rat at 0.5 mg/kg, iv
# [10] = Intrinsic clearance in rat liver microsomes assessed as loss of parent compound incubated for 30 mins; format: ADME, Microsome; conditions: read-out: CLH
# Mus musculus [11] = experiment: Antinociceptive activity in mouse model of Histamine-induced itching assessed as reduction in scratching bouts at 30 mg/kg, po relative to control; format: functional; set-up: scale not given: the % may be the effect or the level left
SMILES,clearance [2] [mL/min/kg],IC50 (Cytochrome P450 3A4 [3]) [µM],IC50 (Cytochrome P450 3A4 [4]) [µM],IC50 [5] [µM],further results
COc1ccc2cc([C@H](C)C(=O)O)ccc2c1 [NAPROXEN],,,,,Activity (Mus musculus [1]): 87%
CNC(=O)N(c1ccc(S(=O)(=O)Nc2ccon2)cn1)c1cc(Cl)c(-c2ccc(F)c(OCC(F)(F)F)c2)cc1OC,91.7,> 50,> 50,0.023,logD [6]: 0.9
CNC(=O)N(c1ccc(S(=O)(=O)Nc2ccon2)cn1)c1cc(Cl)c(-c2cc(OC)cc(C(F)(F)F)c2)cc1OC,,> 50,17,,
COc1cc(-c2cccc(C(F)(F)F)c2)c(Cl)cc1N(C(N)=O)c1ccc(S(=O)(=O)Nc2ccon2)cn1,88.3,,,0.008,Papp [7]: < 1.5 ×10⁻⁶ cm/s
COc1cc(-c2ccc(Cl)c(C)c2)ccc1N(C(=O)NC(C)C)c1ccc(S(=O)(=O)Nc2ccon2)cn1,,,,,inhibition [8]: 3.9%
CNC(=O)N(c1ccc(S(=O)(=O)Nc2ncccn2)cn1)c1cc(F)c(-c2cccc(C(F)(F)F)c2)cc1OC,0.5,9,> 50,0.13,CL free [9]: 267 mL/min/kg; logD [6]: 1
CNC(=O)N(c1ccc(S(=O)(=O)Nc2ccon2)cn1)c1cc(F)c(-c2ccc(F)c(OC(F)(F)F)c2)cc1OC,48.3,> 50,> 50,,CL free [9]: 7070 mL/min/kg
CNC(=O)N(c1ccc(S(=O)(=O)Nc2ccon2)cn1)c1cc(Cl)c(-c2ccc(F)c(C(F)(F)F)c2)cc1OC,,> 50,12,,
CNC(=O)C(c1ccc(S(=O)(=O)Nc2ccon2)cn1)c1ccc(-c2ccc(Cl)c(C)c2)cc1OC (configuration not stated),,,,,inhibition [8]: 4.9%
CNC(=O)N(c1ccc(S(=O)(=O)Nc2ccon2)cn1)c1cc(Cl)c(-c2cccc(C(F)(F)F)c2)cc1OC,,> 50,5,0.017,
COc1cc(-c2ccc(Cl)c(C)c2)ccc1-n1c(=O)ccc2cc(S(=O)(=O)Nc3ccon3)ccc21,13,> 50,32,5,microsomal CLint [10]: 28 µL/min/mg; CL free [9]: 2200 mL/min/kg; IC50 ([5]; record 2): 0.01 µM; logD [6]: 2.5
CN(C)CCOC(c1ccccc1)c1ccccc1 [DIPHENHYDRAMINE],,,,,Activity (Mus musculus [11]): 73%
